Assay results as given in US20110142799A1, “MODULATION OF NEURODEGENERATIVE DISEASE BY MODULATING XBP-1 ACTIVITY” (PRESIDENT AND FELLOWS OF HARVARD COLLEGE, priority 2008, published 2011).

Tests used:
[1] = system: autophagosomes in NSC34 cells; assay: Autophagosome number (LC3-EGFP dots, electron microscopy) in NSC34 cells; type: cell-based; conditions: shXBP-1 cells, 16 h with 10 mM 3-MA
Procedure: Lysosomes or acidic compartments were visualized with two different assays. Living cells were stained with 200 nM lysotraker or 600 nM Acridine orange for 45 min at 37 C and 5% CO2. Cells were washed three times with cold PBS and then fixed for 30 min with 4% formaldehyde on ice, then maintained in PBS containing 0.4% formaldehyde for visualization on a confocal microscope. Autophagosomes were visualized after the expression of LC3-EGFP (Kabeya et al., 2000. EMBO J. 19, 5720-5728) or LC3-dsRED after the transient transfection of low amount of DNA (⅓ amount of recommended concentrations by transfection kit). As control experiments, cells were treated with 10 mM 3-MA autophagy inhibitor. All quantifications were performed at least in a total of 150 cells performed in duplicate for each independent experiment.
Autophagosomes were also visualized by transmission electron microscopy. Cells were fixed with 1.25% formaldehyde, 2.5% glutaraldehyde, 0.03% picric acid in 100 mM sodium cacodylate buffer. After washing with 100 mM sodium cacodylate buffer, tissues were treated for 1 h with 1% osmium tetroxide and 1.5% potassium ferrocyanide, and then 30 min with 0.5% uranyl acetate in 50 mM maleate buffer, pH 5.15. After dehydration in ethanol, cells were treated for 1 h in propylenoxide and then embedded in Epon/Araldite resin. […]

[2] = system: mutant SOD1 aggregates in NSC34 cells; assay: High molecular weight, detergent insoluble SOD1 aggregates in NSC34 cells by Western blot; type: cell-based, human; conditions: shXBP-1 and shIRE-1 alpha NSC34 cells expressing SOD1^G85R; 16 h with 10 mM 3-MA or 10 μM wortmannin
From the text: Stable motoneuron cell lines with reduced levels of XBP-1, IRE1α, Beclin-1 and EDEM were generated using methods previously described (Hetz et al., 2007) by targeting the respective mRNA with shRNA using the lentiviral expression vector pLKO.1 and puromycin selection. As control empty vector or a shRNA against the luciferase gene were employed. Constructs were generated by The Broad Institute (Boston, USA) based on different criteria for shRNA design (see broad.mit.edu/genome_bio/trc/rnai.html). A total of five different constructs for each gene were screened and the most efficient one was selected for further studies. Targeting sequences identified for the mouse XBP-1, IRE1α, Beclin-1 and EDEM mRNA are 5′-[…]-3′,5′-[…]-3′,5′-[…]-3′,5′-[…]-3′,5′-[…]-3′,5′-[…]-3′, 5′-[…]-3′ and 5′-[…]-3′, respectively. […]
Assays using the transient expression of human SOD1^WT and the mutants SOD1^G93A and SOD1^G85R as EGFP fusion proteins were developed. These constructs were employed to visualize and quantify the formation of intracellular SOD1 inclusions in living cells by fluorescent confocal microscopy. […] SOD1 oligomers were visualized in total cell extracts prepared in RIPA buffer and sonication, and then analyzed by Western blot. […]

Cn1cnc(N)c2ncnc1-2 [3-MA, 3-methyladenine]
number of cells containing more than four autophagosomes per cell after 3-MA [1]: decreased | SOD1 aggregation after PI3-kinase / autophagy inhibitor [2]: recovery of mutant SOD1 aggregation in knockdown cells
